Experimental findings from PubChem BioAssay (NCI) are described below.

Where “and” joins values, the source holds several entries; their conditions need not be identical. Identical values can stand only once.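 Grown in 96-well plates, cells were treated for 48 hours with each compound at five concentrations. Insufficient inhibition: endpoint recorded as highest concentration tested. TGI denotes the concentration required for complete inhibition of growth.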

Common to all, as to assay: NCI tumour cell line growth inhibition, 48 h
Assay [1] concerns COLO 205 colon.
The test system of assay [2] is U251 CNS.
The test system of assay [3] is EKVX NSCLC.
For assay [4], the system named is K-562 leukemia.
The test system of assay [5] is TK-10 renal.
The test system of assay [6] is BT-549 breast.
For assay [7], the system named is NCI-H226 lung.
The subject of assay [8] is SK-MEL-5 melanoma.
The test system of assay [9] is UACC-62 melanoma.
Assay [10] concerns HOP-92 NSCLC.
In assay [11] the test system is CAKI-1 renal.
For assay [12], the system named is OVCAR-5 ovarian.
Assay [13] has as its system HOP-62 NSCLC.
Assay [14] deals with 786-0 renal.
Assay [15] concerns DU-145 prostate.
For assay [16], the system named is HCT-116 colon.
Assay [17] deals with IGROV1 ovarian.
The subject of assay [18] is A549 NSCLC.
Assay [19] relates to M14 melanoma.
For assay [20], the system named is OVCAR-4 ovarian.

Consider `O=C(N/N=C/c1ccc(Cl)cc1)c1ccccc1Nc1ccccc1C(=O)N/N=C/c1ccc(Cl)cc1`, for which the TGI in assay [1], in assay [2], in [3], in assay [4], in assay [5] and in assay [6] was more than 100 µM each time. Besides, the TGI in assay [7], in assay [8], in assay [9], in assay [10], in assay [11] and in assay [12] was more than 100 µM throughout. Besides, the TGI in [13], in assay [14], in assay [15], in [16], in [17] and in [18] was more than 100 µM in each case. In addition, the TGI in assay [19] and in assay [20] was more than 100 µM in each case.

Take `C=C1CC(C)(COc2ccc3c(C)cc(=O)oc3c2)OC1=O` (stereo not given): the TGI in assay [1] is 2.86 µM; in assay [2], 25.4 µM; in assay [3], 17.8 µM; in assay [4], more than 31.9 µM; in assay [5], 4.06 µM; in assay [6] it was 7.56 µM. For the same compound, the TGI in assay [7] was 26.2 µM; in assay [8], 3.37 µM; in [9] it was 4.8 µM; in assay [10], 3.25 µM; in assay [11], 7.53 µM; in assay [12], 16.5 µM. For the same compound, the TGI in assay [13] worked out at 28.4 µM; in assay [14], 5.65 µM; in assay [15] it was 8.96 µM; in [16] it was 4.72 µM; in [17] it was 8.98 µM; in assay [18], 23.8 µM. Moreover, the TGI was determined as 3.35 µM in assay [19] and 9.06 µM in assay [20].

In the case of `CCCCCC(=Nc1n[nH]nc1C(N)=O)OCC`, the TGI in assay [1], in assay [2], in [3], in [4], in assay [5] and in assay [6] was more than 100 µM throughout. Also, the TGI in assay [7], in assay [8], in assay [9], in [10], in assay [11] and in assay [12] was more than 100 µM each time. The TGI in assay [13], in assay [14], in [15], in assay [16], in [17] and in [18] was more than 100 µM throughout. For the same compound, the TGI in [19] and in [20] was more than 100 µM each time.

In the case of `CNc1ncnc2c1cnn2CCCCO`, the TGI in [1], in assay [2], in assay [3], in [4], in assay [5] and in assay [6] was more than 100 µM in each case. The TGI in [7], in assay [8], in assay [9], in assay [10], in assay [11] and in assay [12] was more than 100 µM each time. In addition, the TGI in assay [13], in [14], in assay [15], in [16], in assay [17] and in assay [18] was more than 100 µM throughout. The TGI in assay [19] and in assay [20] was more than 100 µM throughout.

`COc1ccc(C(=C2C(=O)N(c3ccccc3)C(=O)C2=C(C)C)c2ccc(OC)cc2)cc1`: the TGI in [1] is more than 33.3 µM; in [2] it was more than 46.1 µM; in assay [3] it was more than 24.4 µM; in [4], more than 100 µM; in assay [5], more than 47.5 µM; in [6], more than 39.2 µM. Moreover, the TGI is more than 54 µM in assay [7]; more than 51.4 µM in [8]; more than 34.2 µM in assay [9]; more than 31.6 µM in assay [10]; 42 µM in [11]; more than 58.6 µM in [12]. For the same compound, the TGI is more than 66.2 µM in assay [13]; 23.7 µM in assay [14]; more than 58 µM in assay [15]; more than 51.1 µM in [16]; more than 36.6 µM in assay [17]; more than 62.9 µM in [18]. Moreover, the TGI in assay [19] is 13.5 µM; in [20], more than 29.3 µM.

Consider `CN(C)CCCN1c2ccc([N+](=O)[O-])cc2CCc2cc([N+](=O)[O-])ccc21`, for which the TGI in assay [1] is 32 µM and 29.4 µM; in assay [2], 30.2 µM and 27.6 µM; in assay [3], 28.5 µM and 29.4 µM; in assay [4], 59.5 µM and 31.2 µM; in assay [5] it was 23.3 µM and 24.3 µM; in assay [6], 29.2 µM. For the same compound, the TGI in [7] is 32.8 µM and 33.4 µM; in assay [8], 29.5 µM and 23.1 µM; in [9], 26.3 µM and 28.2 µM; in [10] it was 20 µM and 18 µM; in assay [11] it was 29.1 µM; in assay [12], 28.6 µM and 28 µM. The TGI in assay [13] was 30.4 µM and 25.6 µM; in assay [14], 24.5 µM and 27.5 µM; in assay [15], 30.2 µM and 33 µM; in assay [16] it was 27.4 µM and 27.1 µM; in assay [17], 28.9 µM and 29.1 µM; in [18], 32.7 µM and 31.5 µM. The TGI in assay [19] is 31 µM and 28 µM; in assay [20], 14 µM and 31.3 µM.

Turning to `CC1OC(OCC2OC(Oc3ccc(C4CC(=O)c5c(O)cc(O)cc5O4)cc3O)C(O)C(O)C2O)C(O)C(O)C1O` (stereo not given), the TGI in assay [1], in assay [2], in assay [3], in assay [4], in [5] and in [6] was more than 100 µM in each case. For the same compound, the TGI in [7], in assay [8], in assay [9], in assay [10], in assay [11] and in [12] was more than 100 µM in each case. The TGI in assay [13], in assay [14], in assay [15], in assay [16], in [17] and in assay [18] was more than 100 µM each time. The TGI in [19] and in assay [20] was more than 100 µM in each case.
